# Laboratory results taken from patent publication US7312305B2, “Tumor cytotoxicity induced by modulators of the CXCR4 receptor” (Morehouse School of Medicine, priority 2003, dated 2007).
# Experiments:
# [1] = test system: epithelial tumor cell lines, HUVECs; test: Apoptotic assay with gp 120 and Nef peptides; assay type: cell-based, human
# Source text: The nef protein was expressed and purified in the inventors' laboratory. overlapping 20 mer peptides encompassing the entire nef protein and overlapping 15 mer peptides encompassing the entire gp 120 protein were obtained from the NIH AIDS Research & Reference Reagent Program (McKesson HBC BioServices, MD) Other specific peptides designed from within gp 120 or nef were obtained from SigmaGenosys.
# Apoptosis, Terminal Deoxynucleotidyl Transferase dUTP Nick-end Labeling (TUNEL) Assay
# Apoptosis generates DNA free ends which can be labeled in situ using terminal deoxynucleotidyl-transferase (TdT), incorporating an exogenously added labeled nucleotide to the DNA strand. This label can then be visualized directly by fluorescence or indirectly using anti-FITC-peroxidase, and a calorimetric assay. Cells on coverslips were washed with PBS, and fixed for 30 minutes at RT with 4% paraformaldehyde, in PBS, pH 7.4. They were then washed with PBS, and permeabilized with 0.1% Triton X-100
# for 10 minutes at room temperature (RT). The slides were rinsed twice with PBS, and air dried for 2 minutes. The manufacturer's procedure for TUNEL staining the slides was followed (manufacturer's procedure for the In Situ Cell Death Detection Kit, AP; Boehringer Mannheim, Indianapolis, Ind.). Total cell counts were determined by counterstaining fixed cultures with 20 μg/ml of Hoechst 33258. All specimens were observed by epifluorescence on a computer-controlled microscope system based on a Zeiss Axioskop microscope (Carl Zeiss, Thornwood, N.Y.), and the images were obtained and examined using a charged coupled device (CCD) camera, MagnaFire, model S99806 (Olympus American, Melville, N.Y.). Images were examined using Image-Pro Plus 4.1 for Windows (Media Cybernetics, Silver Springs, Md.) software.
# Overlapping peptide sets obtained from the AIDS Reagent Bank were used in the apoptotic assay as disclosed above. Specific pg 120 and Nef peptides within those sets were identified as inducing apoptosis in epithelial tumor cell lines, as well as in HUVECs. Alternatively, these same peptides had no effect in primary mammary epithelium or in MDA-MB-468 tumor lines.
# MDA-MB-231, MCF7, DU4475 = test: Agarose gel electrophoresis/DNA fragmentation, CXCR4 expressing cell lines; assay type: cell-based, human; settings: 10 mM (6.35 mg/ml) ceramide
# Experimental: Apoptosis Assay: Agarose Gel Electrophoresis/DNA Fragmentation
# Untreated or treated cells were collected, and DNA was harvested from normal or cancer cell cultures. Briefly, the cells were washed with PBS, pelleted at 1600 g for 20 minutes at 4° C., and resuspended in 50 mM Tris-HCl, pH 7.5, 20 mM EDTA buffer at about 10^ 7 cells/ml. The cells were then treated 2× with lysis buffer: 1.0% NP-40 (Sigma, St. Louis, Mo.) in the same Tris/EDTA buffer at RT for 2 minutes followed, by centrifugation at 1600 g for 5 minutes. After the last spin, SDS was added to the supernatant to 1% final concentration, RNase A (Sigma, St. Louis, Mo.) was added to 5 mg/mil final concentration, and the solution incubated at 56° C. for 2 hours. Subsequently, protease K (Promega, Madison, Wis.) was added to the solution to 2.5. µg/ml and incubated at 37° C. for 2.5 hr. Ammonium acetate was added to 4 M final concentration, 0.7 volumes of isopropanol was added, the solution was put at −20° C. overnight followed by centrifugation at 14,000 rpm for 30 minutes. The pellets were washed twice with 70% ethanol, dried and resuspended in 10 mM Tris-HCl, pH […]. DNA samples, 18 µg per condition, were prepared in neutral loading buffer to a final concentration of 0.02% bromophenol blue, 5% glycerol, 0.1% SDS, and 50 µg of ethidium bromide, loaded onto a neutral agarose gel (1.7%), and run at50V for 2.5 hours. […]
substance,measurement,setting,value
"ALAETCONAWA [Seq. I.D. No. 8, reference compound]",apoptotic/modulator properties of peptide or motif,[1],lost all apoptotic effects
Ceramide,"DNA laddering, positive control","MDA-MB-231, MCF7, DU4475",DNA laddering characteristic of apoptotic cells was observed
"GRAFYTT [Seq. I.D. No. 9, motif within the V3 loop of Gp 120, amino acids 315 to 321]",apoptotic/modulator properties of peptide or motif,[1],apoptosis-inducing motif
GRAFYTTKY [Seq. I.D. No. 11],apoptosis relative to that observed from the full gp 120 protein,[1]; equivalent molar ration (9 mer peptide is 2% of the full protein),about 60%
"NAACAWLEAQ [Seq. I.D. No. 7, 10 mer peptide spanning amino acids 50-60 of the Nef protein]",apoptosis relative to that observed for the full Nef protein,[1]; equivalent molar ration (10 mer peptide is 5% the amount of full protein),~100%
